Experimental data reported in PubChem BioAssay (NCI).
Several values for one entry are separate records, joined by “and”; a condition that tells them apart may be missing. Equal entries are not always repeated.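 Step 1: Grow cells in 96-well plates. Step 2: Expose to compound for 48 hours at 5 concentrations. Step 3: Interpolate endpoints linearly; if unreached, use highest concentration. GI50 = concentration required for 50% inhibition of growth. TGI: total growth inhibition.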

Experiments:
Experiment in all cases: NCI-60 cell line screen, 48 h
786-0 renal = tested on: 786-0 renal
HCT-116 colon = tested on: HCT-116 colon
HCT-15 colon = tested on: HCT-15 colon
HT29 colon = tested on: HT29 colon
MDA-MB-435 = tested on: MDA-MB-435
RPMI-8226 leukemia = tested on: RPMI-8226 leukemia
SK-MEL-5 melanoma = tested on: SK-MEL-5 melanoma
UO-31 renal = tested on: UO-31 renal

Structure (SMILES)	GI50 (786-0 renal)	TGI (786-0 renal)	GI50 (HCT-116 colon)	TGI (HCT-116 colon)	GI50 (HCT-15 colon)	TGI (HCT-15 colon)	GI50 (HT29 colon)	TGI (HT29 colon)	GI50 (MDA-MB-435)	TGI (MDA-MB-435)	GI50 (RPMI-8226 leukemia)	TGI (RPMI-8226 leukemia)	GI50 (SK-MEL-5 melanoma)	TGI (SK-MEL-5 melanoma)	GI50 (UO-31 renal)	TGI (UO-31 renal)
CCCCC[C@@H](C/C=C/CCC(=O)NC/C(=C/Cl)[C@H]1C(=O)C(C)(C)C(=O)[C@@H](C)[C@@]1(C)O)OC	1.58 µM	16.9 µM	14 µM	27.4 µM	17.1 µM	32 µM	14.5 µM	30.9 µM	18.7 µM	36.3 µM	6.23 µM	23 µM	17.3 µM	32.1 µM	15.4 µM	28.8 µM
C=C(Cl)[C@@](Cl)(CBr)CC[C@@H](Br)C(C)(C)Cl	0.0733 µM	0.286 µM and 0.247 µM		1.25 µM and 0.635 µM	0.866 µM	4.99 µM and 1.97 µM	1.28 µM	4.48 µM and 0.635 µM	2.5 µM	39.5 µM and 5.5 µM	0.0688 µM	1.48 µM and 0.473 µM	19.5 µM	> 100 µM and 21.3 µM	0.428 µM	1.85 µM and 2.01 µM
COc1cc(N(CCC#N)CCC#N)ccc1/C(N=Nc1ccc(C(=O)O)cc1)=N/NC(=O)c1cc(Br)ccc1O	97.8 µg/mL	> 150 µg/mL	62.8 µg/mL	> 150 µg/mL	35.8 µg/mL	95 µg/mL	58.5 µg/mL	> 150 µg/mL	> 150 µg/mL	> 150 µg/mL	127 µg/mL	> 150 µg/mL	69.7 µg/mL	> 150 µg/mL	107 µg/mL	> 150 µg/mL
Cn1ccnc1C(=O)/C=C/c1ccc(C(=O)Nc2c(F)c(F)c(F)c(F)c2F)cc1	1.83 µM	3.62 µM	1.17 µM	2.48 µM	1.11 µM	4.3 µM	1.77 µM	3.89 µM	2.02 µM	4.68 µM	0.505 µM	2.54 µM	1.79 µM	3.28 µM	1.47 µM	2.79 µM
Fc1ccc(-c2nn3c(COc4ccc(Cl)cc4)nnc3s2)cc1Oc1ccccc1	14.2 µM	30 µM	20.6 µM	> 52.3 µM	> 60.6 µM	> 100 µM	> 47.9 µM	> 74.8 µM	30.8 µM	> 71.1 µM	13.9 µM	29 µM	18.2 µM	41.5 µM	24.4 µM	> 100 µM
CCCCCCCCCCCCOC1C(C(CC(=O)N2CCN(Cc3ccc4c(c3)OCO4)CC2)NS(=O)(=O)c2cc(Cl)cc(Cl)c2)OC2OC(C)(C)OC21 (stereo not drawn)	20.4 µM	> 86.5 µM	6.69 µM	36.7 µM	> 100 µM	> 100 µM	4.82 µM	31.1 µM	48 µM	> 100 µM	3.79 µM	> 47.5 µM	39.3 µM	> 100 µM	32.9 µM	> 100 µM
COc1cc(/C=C\c2cc(OC)c(OC)c(OC)c2)cc(NS(=O)(=O)c2ccc(Cl)cc2)c1OC	0.666 µM	> 100 µM	0.469 µM	> 100 µM	0.399 µM	> 100 µM	0.348 µM	10.2 µM	0.188 µM	0.44 µM	0.387 µM	33.2 µM	0.297 µM	1.17 µM	0.696 µM	> 100 µM
CC1=C2[C@@H](CC1)[C@]1(C)O[C@@](C3CC3)(C[C@H]1OC(=O)CO)[C@H]2OC(=O)/C=C/c1ccccc1	3.19 µM	25.7 µM	16 µM	30.9 µM	13.6 µM	29.3 µM	16.1 µM	32.2 µM	16.1 µM	30.6 µM	19.8 µM	54.4 µM	16.7 µM	30.5 µM	0.636 µM	20.8 µM
C#CC#CC#CC#CC#CC#CC#CC#CC[C@@H]1OC[C@@H](COC(=O)O[C@@H](C(=O)O[C@H]2C[C@@]3(O)[C@@H](OC(=O)c4ccccc4)[C@@H]4[C@]5(OC(C)=O)CO[C@@H]5C[C@H](O)[C@@]4(C)C(=O)[C@H](OC(C)=O)C(=C2C)C3(C)C)[C@@H](NC(=O)c2ccccc2)c2ccccc2)O1	1.09 µM	> 33.3 µM	0.0919 µM	> 33.3 µM	1.11 µM	> 33.3 µM	0.095 µM	> 33.3 µM	0.0394 µM	0.111 µM	0.109 µM	> 33.3 µM	0.83 µM	> 9.15 µM	3.39 µM	> 33.3 µM
CC1OC(OC2C(O[C@H]3CC[C@@]4(C)C(=CC[C@H]5[C@@H]6C[C@@H]7O[C@]8(CC[C@@H](C)CO8)[C@@H](C)[C@@H]7[C@@]6(C)CC[C@@H]54)C3)OC(CO)C(OC3OC(CO)C(O)C3O)C2O)C(O)C(O)C1O (stereo partly drawn)	0.221 µM	1.34 µM and 0.464 µM	1.26 µM	1.6 µM and 2.52 µM	0.621 µM	1.99 µM and 1.94 µM	1.01 µM	1.62 µM and 2.17 µM	0.434 µM	2 µM and 1.57 µM	0.212 µM	2.71 µM and 0.586 µM	0.487 µM	1.43 µM and 1.67 µM		1.5 µM
